{
  "source": "patent US8617563B2",
  "about": "“Antichlamydial agents” (Duke University, priority 2011, dated 2013)",
  "key": {"C. caviae CPAF": {"tested_on": "C. caviae CPAF", "experiment": "GST-IncC cleavage by lysate of C. caviae (GPIC) infected cells", "format": "biochemical", "conditions": "infected whole cell lysate", "experimental": "(§1) Cells were infected with an MOI of 1 and treated with CPAF inhibitor (SEQ ID NO:7) or control (SEQ ID NO:11) peptides at 12 hpi, fixed at 24 hpi and analyzed by IF with anti-L2 polyclonal antisera. Inclusion size was determined by measuring the inclusion diameter in μm by confocal microscopy of 50 infected cells. The number of cells with fragmented inclusions was determined by counting the number of infected cells out of 50 with more than one inclusion. (C) Sequence alignment and % sequence identify of full length CPAF and predicted inhibitory peptide sequence between C. trachomatis serovar LGV-L2, Chlamydia muridarum, and Chlamydophila caviae was determined using Geneious software (available at the Geneious website). […] GPIC or C. muridarum infected whole cell protein lysate was preincubated with SEQ ID NO:7 peptide or SEQ ID NO:11 control peptide, mixed with GST-IncC at 37° C., resolved by SDS-PAGE and stained with Coomassie blue. […] Inhibition of C. muridarum (E) and C. ceviae (F) growth was determined by counting the number of recovered IFUs. […] Inclusions were detected by IF with anti-LGV-L2 (A, B, E) antisera or anti-chlamydial LPS (F) monoclonal antibodies, and host nuclei sere detected by staining."}, "CPAF": {"target": "CPAF (Chlamydia trachomatis serovar D, UniProt O84866)", "sequence (O84866 276-601)": "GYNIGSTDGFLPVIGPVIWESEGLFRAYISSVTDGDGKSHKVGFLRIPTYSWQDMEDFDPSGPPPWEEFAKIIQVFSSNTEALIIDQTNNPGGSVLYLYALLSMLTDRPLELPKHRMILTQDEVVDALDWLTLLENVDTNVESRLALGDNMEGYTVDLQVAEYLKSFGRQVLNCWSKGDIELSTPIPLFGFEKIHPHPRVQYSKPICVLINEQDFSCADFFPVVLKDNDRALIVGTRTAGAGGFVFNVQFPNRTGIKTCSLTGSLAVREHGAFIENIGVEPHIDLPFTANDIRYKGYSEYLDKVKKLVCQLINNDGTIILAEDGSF", "sequence (O84866 1-234, added parts left off)": "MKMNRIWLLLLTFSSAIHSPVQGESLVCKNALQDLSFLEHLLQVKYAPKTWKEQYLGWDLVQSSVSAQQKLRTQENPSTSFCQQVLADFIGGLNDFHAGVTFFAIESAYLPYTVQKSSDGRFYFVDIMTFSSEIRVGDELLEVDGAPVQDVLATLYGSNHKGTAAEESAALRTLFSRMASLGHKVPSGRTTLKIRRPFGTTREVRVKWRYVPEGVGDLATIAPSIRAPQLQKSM", "experiment": "FRET-based CPAF inhibition assay with model substrate SEQ ID NO:10", "format": "biochemical, C. trachomatis", "set-up": "6xHis; made in house; host or cells: E. coli BL21 (DE3), plasmid pET30b-CPAF", "experimental": "FRET-based assays comprised an Abz-tagged model CPAF substrate with an additional C-terminal 3-nitrotyrosine quencher:\nThe 3-nitrotyrosine moiety quenches Abz fluorescence until substrate cleavage occurs. FRET-based assays were performed in optical plates in a final volume of 100 μL containing 150 mM NaCl, 50 mM Tris pH 7.50, purified CPAF (62.5 nM), varying concentrations of model CPAF substrate (0.5 mM), and varying concentrations of each candidate compound (0-240 μM). IC50 values were determined by pre-incubating CPAF with varying concentrations of candidate compound for 5 min at room temperature prior to initiation of the reaction via the addition of model CPAF substrate. Reactions were initiated and read continuously at 420 nm for 10 minutes using a fluorescence microplate reader. The percentage of substrate converted was calculated using initial velocity over the first 90 seconds and converting RFU to concentration based on a standard curve with Abz followed by analysis in Graffit 6.0 using the equation of Example 8."}, "C. muridarum CPAF": {"tested_on": "C. muridarum CPAF", "experiment": "GST-IncC cleavage by lysate of C. muridarum infected cells", "format": "biochemical", "conditions": "infected whole cell lysate", "experimental": "as §1"}, "[1]": {"tested_on": "epithelial cells infected with C. trachomatis", "experiment": "Host cell death (condensed nuclei) in C. trachomatis infected cells", "format": "cell-based", "conditions": "dose-dependent, peptide at 12 hpi", "experimental": "FIG. 11 depicts (A) that inhibiting CPAF activity induces host cell death. The indicated peptides (anti-CPAF peptide refers to SEQ ID NO:7) were added to infected cells 12 hpi and the percentage of infected cells with condensed nuclei was quantified at the indicated times. (B-C) Inhibition of CPAF activity induces apoptosis. Infected cells were treated with peptides and the percentage of AnnexinV-FITC positive (propidium iodide (PI) negative) was determined by flow cytometry (B). In parallel samples, cleavage of Caspase-3, a hallmark of apoptosome activation, was monitored by immunoblot analysis. Actin and MOMP are host and bacterial loading controls respectively. Staurosporine (2 μM)-treatment was used as a positive control and the pan-caspase inhibitor ZVAD-FMK were used as controls. (D) Cell death is blocked by a pan-Caspase inhibitor. Infected cells were treated as in (A) in the presence or absence of ZVAD-FMK, labeled with PI and analyzed by flow cytometry. Cells pre-treated with ZVAD-FMK and the control peptide lacked PI staining.\nFIG. 12 depicts (A) low-magnification view of C. trachomatis LGV-L2 infected HeLa monolayers (30 h) treated with SEQ ID NO:7 or SEQ ID NO:11 peptides. […] HeLa cells infected with C. muridarum were treated with Ac-YVAD-CMK at 2 hpi, SEQ ID NO:7 peptide or SEQ ID NO:11 control peptide at 12 hpi and the percentage of infected cells with condensed nuclei was assessed at 48 hpi (F). […] The percentage of infected cells with condensed nuclei was assessed at 48 hpi (G). […] Cell death in infected and uninfected cells treated with CPAF inhibitory peptides or control peptides was determined by counting the number of condensed nuclei of ˜1000 cells.\nFIG. 13 depicts (A) that Caspase-1 inhibitors block Chlamydia-mediated cell death. […] Cells were fixed and the percentage of cells with condensed nuclei determined at 24 hpi. […] Infected cells were labeled with a cell-permeable fluorescent substrate of Caspase-1 and treated with inhibitory peptides, and Caspase-1 activity was monitored by flow cytometry. […]"}},
  "note": "Entries after “also recorded” stand apart in the source; their conditions may differ. Where no end group is shown, it is not given here.",
  "data": [
    {"substance": "SLFYSPMVPHFWAELRNHYATSGLKRRRRRRRRR-NH2 [SEQ ID NO:7]", "values": [
      {"measurement": "Inhibition of C. caviae CPAF", "setting": "C. caviae CPAF", "result": "not sensitive to inhibition; also recorded: but not C. ceviae CPAF"},
      {"measurement": "IC50", "setting": "CPAF", "result": "30 ± 6", "unit": "nM"},
      {"measurement": "Inhibition of substrate cleavage by C. muridarum CPAF", "setting": "C. muridarum CPAF", "result": "prevented cleavage of substrate; also recorded: inhibits C. muridarum CPAF"},
      {"measurement": "Number of condensed nuclei in C. trachomatis infected cells", "setting": "[1]", "result": "marked increase in the number of condensed nuclei"}
    ]}
  ]
}
